In patent publication US5034419A, “N-cycloalkylalkylamines, process for their preparation, their use as medicament and their synthesis intermediates” (L'Oreal, priority 1988, dated 1991):
Where a name gives a salt, the structure may show the parent alone. Read-outs that look alike come from different tables or passages of the source.

Key:
[1] = inhibition of gastro-duodenal ulcers caused by cysteamine; assay type: in vivo, Wistar female rats; conditions: Rattus norvegicus; cysteamine hydrochloride 400 mg/kg s.c.; products orally or subcutaneously; read-out: ED50 - ulceration scores
Experimental: This activity is set in relation to the capacity of the products to cause an increase in the alkaline secretion in the duodenum in anaesthetized animals.
In this test, groups of 6 Wistar female rats with an average weight of 200 g receive a subcutaneous injection of cysteamine hydrochloride in an amount of 400 mg/kg. The products under investigation are administered orally or subcutaneously 1 h or, respectively, 30 minutes before the ulcerogenic agent.
Ten hours thereafter, the rats are sacrificed by elongation and their stomach and duodenum are removed, rinsed with physiological solution and mounted on a card. The presence of ulcers in the antro-pyloric-duodenal zone is examined and their area, expressed in mm^2, is evaluated by multiplying the two main perpendicular axis of the lesion. Statistical analysis of the results is performed with the aid of the Student test for the ulcerated areas in comparison with a control group receiving only excipient.
The results presented in table 5 are expressed in ED50 of ulceration scores, which are the effective doses, expressed in mg/kg product, which cause inhibition of 50% of the ulcerations caused by cysteamine.

sigma receptors = target: T1, sigma receptors (Cavia porcellus, UniProt Q60492); assay: in vitro affinity for sigma receptors, competition with (+)[3H]SKF10,047; assay type: binding, guinea-pig (cerebral membranes)
T1 construct: sigma receptors of the cerebral membranes of the guinea-pig used in this study; from tissue; host or cells: guinea-pig cerebral membranes
Experimental: The test is carried out by incubating solutions of suitable concentrations of the products with standard samples of membranes and determining, after filtration, the residual radioactivity of the solution.

delta receptors = target: T2, delta receptors (Cavia porcellus, UniProt A0A286XTF2); assay: in vitro affinity for delta receptors; assay type: binding; conditions: Table 3; read-out: delta rec. IC50
T2 construct: from tissue
Experimental: (§1) The "in vitro" study of the affinity of the compounds according to the invention for the three opium receptors is carried out in accordance with the technique described by F. Roman and coll. in J. Pharm. Pharmacol. 1987, 39, p. 404-407 and the study of the affinity for PCP receptors is carried out in accordance with the technique described by Vignon J. and coll. in "Brain Res." 1983; 280, p. 194-7 and 1986; 378, p. 133-41.
(§2) The results shown in table 3 are, for each receptor studied, expressed in IC50, which are the nanomolar concentrations of the dissolved products which are capable of inhibiting 50% of the bonds between the specific radioactive ligand to the receptor under consideration.

[2] = antagonism of amnesia caused by scopolamine, passive avoidance test; assay type: in vivo, mice; conditions: for % antagonism of the amnesia: 0.25 mg/kg orally, scopolamine 1 mg/kg i.p. 30 minutes later, latency after 24 hours; for antagonism of amnesia caused by scopolamine (in words): mouse, in vivo
Experimental: The animal is introduced into the illuminated compartment, and when it moves to the dark compartment it receives an electric current (0.35 mA) through the base until it returns to the illuminated compartment, from where it is then removed.
After 24 hours, the operation is repeated. The mouse is replaced in the apparatus and it avoids entering into the dark compartment. The time which elapses before passage into this compartment is recorded; under the conditions of the experiment, the efficacy of the compounds under investigation in antagonizing the amnesic effect of scopolamine, which is administered intraperitoneally in an amount of 1 mg/kg 30 minutes before the animal is first introduced into the apparatus, can be evaluated.
In control mice which have received only scopolamine, the time elapsed before passage after 24 hours is remarkably lower than that observed in the untreated animals.
The study of the products according to the invention by this method is performed on groups of 18 mice and the products are administered orally on the first day in an amount of 0.25 mg/kg 30 minutes before administration of scopolamine i.p.

[3] = alkaline duodenal secretion in anaesthetized rats; assay type: in vivo, male rats; conditions: 1 mg/kg intravenously; for Increase AUC 1 2 h: AUC of alkaline flow rate 1 h to 2 h compared with control animals; for Increase in secretion: maximum increase, anaesthetized rats
Experimental: The activity of the products on alkaline duodenal secretion in rats is studied in accordance with a technique described by FLEMSTROM and coll. Gastroenterology, 1983, 84, p. 787-794.
The test comprises determination every 10 minutes, for 3 hours and in situ, of the alkaline secretion of a duodenal segment 12 mm in length, with no Brunner glands and situated 2 cm from the pylorus.
The study is performed on male rats of about 350 g previously anaesthetized, in which the duodenal segment chosen in cannulated by 2 glass tubes in accordance with the technique described by the author, and in which a luminal perfusate consisting of 5 ml isotonic NaCl solution is maintained at 37° C.
The variations in the intraluminal alkaline secretion are measured by pHmetry every 10 minutes by means of an automated system maintaining a constant pH of 7.4 by in situ addition of a 0.04N solution of hydrochloric acid. Fifty minutes after the start of the experiment, the products under investigation are administered intravenously or intraarterially in an amount of 1 mg/kg and the volume of hydrochloric acid introduced, which is a reflection of the in situ increase in alkaline secretion, is measured every 10 minutes for 3 hours with respect to the start of the experiment, that is to say for 130 minutes after injection of the product under investigation.
The following are determined for each product:
a) The maximum increase in secretion in micro-eq/cm/h under the action of the drug, taking into account the basal secretion of the same animals observed for 50 minutes before administration of the product.
The results are shown in table 6, which follows, for the products (I) according to the invention administered intravenously in an amount of 1 mg/kg.

mu receptors = assay: in vitro affinity for mu receptors; assay type: binding; conditions: for IC50: Table 3, read-out: mu rec. IC50
Experimental: as §1, §2

kappa receptors = target: T3, kappa receptors (Cavia porcellus, UniProt P41144); assay: in vitro affinity for kappa receptors; assay type: binding
T3 construct: from tissue
Experimental: as §1, §2

PCP receptors = assay: in vitro affinity for phencyclidine (PCP) receptors; assay type: binding; conditions: Table 3; read-out: PCP rec. IC50
Experimental: as §1, §2

[4] = protection from convulsions induced by picrotoxin in mice; assay type: in vivo, "Swiss" male mice; conditions: * p<0.05, ** p<0.01, *** p<0.001; for i.p.: % prot. (inhibition of convulsions induced by picrotoxin): 50 mg/kg i.p., picrotoxin 24 mg/kg i.p. 30 minutes later
Experimental: b) The psychotropic properties of the compounds were determined by the protection from convulsions induced by picrotoxin in mice, which was realized in accordance with a method derived from that of Krall and coll., "Epilepsia", 1978, 19, p. 409-428.
The administration of picrotoxin to animals causes a convulsive attack characterized by a myoclonic extension syndrome followed by extension of the limbs leading to death of the animals. Certain substances, in particular those which act on the GABA/benzodiazepine/Cl-ionophor complex, provide protection of the animals from these convulsive attacks.
In practice, the study is carried out on groups of 10 "Swiss" male mice weighing about 20 g, to which the product under investigation is administered in aqueous solution either intraperitoneally (i.p.) or orally (p.o.).
An intraperitoneal injection of a solution of picrotoxin in an amount of 24 mg/kg in a volume of 0.2 ml per animal is then performed, either 30 minutes after intraperitoneal administration of the product or 60 minutes after oral administration of the product, the dose of the product injected in this way causing a clonic attack which leads to death of the untreated animals. Under the conditions of the test, suppression of the tonic extension phase is found in the animals treated.
The results are expressed:
either as the percentage of animals protected from this phase under the action of 50 mg/kg compound under investigation administered i.p. or 100 mg/kg p.o.,
or in the ED50 for each of these groups, which is the effective dose of the compound under investigation expressed in mg/kg which protects 50% of animals from this extension phase, the significance value of the results generally being indicated in the following manner: […]

animals = conditions: in vivo; cited from earlier work
[5] = Table 2, (+)[3H]SKF10,047, guinea-pig cerebral membranes, read-out: IC50 (bonding affinity to sigma receptors)
[6] = Table 3, read-out: kappa rec. IC50
[7] = IC50 (bonding affinity to sigma receptors), Table 2, (+)[3H]SKF10,047, guinea-pig cerebral membranes

T2 sequence (A0A286XTF2 1-366): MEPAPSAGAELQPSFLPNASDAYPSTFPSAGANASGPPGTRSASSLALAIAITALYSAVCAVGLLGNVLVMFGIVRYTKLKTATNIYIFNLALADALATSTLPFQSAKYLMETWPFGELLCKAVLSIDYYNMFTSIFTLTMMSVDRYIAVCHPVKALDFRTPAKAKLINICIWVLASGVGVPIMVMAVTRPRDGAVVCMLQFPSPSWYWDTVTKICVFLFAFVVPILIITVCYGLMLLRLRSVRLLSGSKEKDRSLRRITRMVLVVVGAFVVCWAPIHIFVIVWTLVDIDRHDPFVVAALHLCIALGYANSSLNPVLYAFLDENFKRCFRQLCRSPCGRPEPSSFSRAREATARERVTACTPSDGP
T1 sequence (Q60492 whole entry): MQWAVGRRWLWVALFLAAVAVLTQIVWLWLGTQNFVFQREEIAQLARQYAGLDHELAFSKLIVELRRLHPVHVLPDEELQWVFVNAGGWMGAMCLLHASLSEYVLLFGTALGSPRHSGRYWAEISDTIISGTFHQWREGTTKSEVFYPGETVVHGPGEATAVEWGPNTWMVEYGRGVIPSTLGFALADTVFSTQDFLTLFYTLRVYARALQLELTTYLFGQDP
T3 sequence (P41144 whole entry): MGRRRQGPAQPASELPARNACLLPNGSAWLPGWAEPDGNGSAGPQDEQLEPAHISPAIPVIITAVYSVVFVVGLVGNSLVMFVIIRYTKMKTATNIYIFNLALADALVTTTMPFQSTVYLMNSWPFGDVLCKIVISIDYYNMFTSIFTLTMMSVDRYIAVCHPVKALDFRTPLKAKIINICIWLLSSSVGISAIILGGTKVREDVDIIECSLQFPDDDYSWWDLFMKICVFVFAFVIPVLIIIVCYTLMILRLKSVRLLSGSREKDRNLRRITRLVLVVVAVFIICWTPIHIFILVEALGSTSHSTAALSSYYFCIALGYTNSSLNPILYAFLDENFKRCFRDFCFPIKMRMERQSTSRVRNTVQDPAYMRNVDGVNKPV

Structure (SMILES)	ED50 [1] [mg/kg]	IC50 (sigma receptors; [5]) [µM]	IC50 (delta receptors) [µM]	% antagonism of the amnesia [2] [%]	antagonism of amnesia caused by scopolamine (in words) [2]	Increase AUC 1 2 h [3]	Increase in secretion [3] [micro-eq/cm/h]	IC50 (mu receptors) [µM]	IC50 (kappa receptors; [6]) [µM]	IC50 (PCP receptors) [µM]	mu rec. relative value of the IC50 (mu receptors; relative to IC50 of sigma affinity = 1)	IC50 (sigma receptors; [7]) [µM]	IC50 (sigma receptors; sigma rec. IC50, Table 3) [µM]	i.p.: % prot. (inhibition of convulsions induced by picrotoxin) [4] [%]	IC50 (kappa receptors; kappa rec. IC50, Table 3) [µM]	toxicity on animals (in words) (animals)	p.o.: % prot. (inhibition of convulsions induced by picrotoxin) ([4]; 100 mg/kg p.o., picrotoxin 24 mg/kg i.p. 60 minutes later) [%]	% antagonism of the amnesia ([2]; hydrochloride) [%]	i.p.: % prot. (inhibition of convulsions induced by picrotoxin) ([4]; hydrochloride) [%]
CCC(CC=Cc1ccccc1)(c1ccccc1)N(C)CC1CCC1 (stereo not drawn) [Example 12, α-Cinnamyl-N-cyclobutylmethyl-α-ethyl-N-methyl-benzylamine]	12.2	0.05	85.6	98	conclusive of an activity of the products according to the invention at a low dose	41.6	7.0	7.18	6.28										
CCC(CC=Cc1ccccc1)(c1ccccc1)N(C)CC1CCCCC1 (stereo not drawn) [Example 7, α-Cinnamyl-N-cyclohexylmethyl-α-ethyl-N-methyl-benzylamine]	10.5	0.032	51.8	56		52.8	6.0	> 100	72.8	50.8	> 1000								
CCC(CC=Cc1ccccc1)(c1ccccc1)N(C)CC1CC1 (stereo not drawn) [Example 9, α-Cinnamyl-N-cyclopropylmethyl-α-ethyl-N-methyl-benzylamine]	26.2		83.8	76	conclusive of an activity of the products according to the invention at a low dose	97.6	10.0	15.8	6.2	3.67		0.024	0.024	90					
CCC(CC=Cc1ccccc1)(c1cccs1)N(C)CC1CC1 (stereo not drawn) [Example 21, α-Cinnamyl-N-cyclopropylmethyl-α-ethyl-N-methyl-2-thiophenemethylamine]	48.2	0.095	7.39					1.54	1.2	6.28				50					
Cc1ccccc1NC(=N)Nc1ccccc1C [DTG, ditolylguanidine, reference compound]			33.2												6.49	excessive toxicity			
CCC(C[C@@H]1C[C@H]1c1ccccc1)(c1cccs1)N(C)CC1CC1 (relative stereo) [Example 24, trans-N-Cyclopropylmethyl-α-ethyl-N-methyl-α-(2-phenyl-1-cyclopropylmethyl)-2-thiophenemethylamine]	45.7	0.029	57					3.02	9.1					50			50		
CCC(CC=Cc1ccccc1)(c1ccccc1)N(C)CC1CC1 (single isomer, unassigned) [Example 10, (+)-α-Cinnamyl-N-cyclopropyl-methyl-α-ethyl-N-methyl-benzylamine hydrochloride]	5		67.9			66.2	7.5		23.8			0.013	0.013					76	50
